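Where inhibition never reached the appropriate level, the endpoint shown equals the highest concentration tested. Otherwise, values were interpolated linearly from a five-concentration, 48-hour dose response in 96-well plates. GI50 is the concentration that inhibits growth by half. TGI is the concentration that stops growth completely.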
Legend:
Experiment in all cases: growth of human tumour cells (NCI), 48 h
786-0 renal = tested on: 786-0 renal
A498 renal = tested on: A498 renal
A549 NSCLC = tested on: A549 NSCLC
ACHN renal = tested on: ACHN renal
BT-549 breast = tested on: BT-549 breast
CCRF-CEM leukemia = tested on: CCRF-CEM leukemia
COLO 205 colon = tested on: COLO 205 colon
DU-145 prostate = tested on: DU-145 prostate
EKVX NSCLC = tested on: EKVX NSCLC
HCC-2998 colon = tested on: HCC-2998 colon
HCT-116 colon = tested on: HCT-116 colon
HCT-15 colon = tested on: HCT-15 colon
HL-60(TB) leukemia = tested on: HL-60(TB) leukemia
HOP-62 NSCLC = tested on: HOP-62 NSCLC
HOP-92 NSCLC = tested on: HOP-92 NSCLC
HS 578T breast = tested on: HS 578T breast
HT29 colon = tested on: HT29 colon
IGROV1 ovarian = tested on: IGROV1 ovarian
K-562 leukemia = tested on: K-562 leukemia
KM12 colon = tested on: KM12 colon
LOX IMVI melanoma = tested on: LOX IMVI melanoma
M14 melanoma = tested on: M14 melanoma
MALME-3M melanoma = tested on: MALME-3M melanoma
MCF7 breast = tested on: MCF7 breast
MDA-MB-231 breast = tested on: MDA-MB-231 breast
MDA-MB-435 = tested on: MDA-MB-435
MOLT-4 leukemia = tested on: MOLT-4 leukemia
NCI-H226 lung = tested on: NCI-H226 lung
NCI-H23 lung = tested on: NCI-H23 lung
NCI-H460 lung = tested on: NCI-H460 lung
NCI-H522 lung = tested on: NCI-H522 lung
NCI/ADR-RES ovarian = tested on: NCI/ADR-RES ovarian
OVCAR-3 ovarian = tested on: OVCAR-3 ovarian
OVCAR-4 ovarian = tested on: OVCAR-4 ovarian
OVCAR-5 ovarian = tested on: OVCAR-5 ovarian
OVCAR-8 ovarian = tested on: OVCAR-8 ovarian
PC-3 prostate = tested on: PC-3 prostate
RPMI-8226 leukemia = tested on: RPMI-8226 leukemia
RXF 393 renal = tested on: RXF 393 renal
SF-268 CNS = tested on: SF-268 CNS
SF-295 CNS = tested on: SF-295 CNS
SF-539 CNS = tested on: SF-539 CNS
SK-MEL-2 melanoma = tested on: SK-MEL-2 melanoma
SK-MEL-28 melanoma = tested on: SK-MEL-28 melanoma
SK-MEL-5 melanoma = tested on: SK-MEL-5 melanoma
SK-OV-3 ovarian = tested on: SK-OV-3 ovarian
SN12C renal = tested on: SN12C renal
SNB-19 CNS = tested on: SNB-19 CNS
SNB-75 CNS = tested on: SNB-75 CNS
SR leukemia = tested on: SR leukemia
SW-620 colon = tested on: SW-620 colon
T-47D breast = tested on: T-47D breast
TK-10 renal = tested on: TK-10 renal
U251 CNS = tested on: U251 CNS
UACC-257 melanoma = tested on: UACC-257 melanoma
UACC-62 melanoma = tested on: UACC-62 melanoma
UO-31 renal = tested on: UO-31 renal

`O=C1c2ccccc2C(=O)c2c1oc1c2c(=O)[nH]c2ccc(Cl)cc21` was tested, and the GI50 (786-0 renal) was 223 nM, the TGI (786-0 renal) was 543 nM and the GI50 (A498 renal) was 214 nM. It also gave a TGI (A498 renal) of 959 nM, a GI50 (A549 NSCLC) of 1030 nM and a TGI (A549 NSCLC) of 2920 nM. The GI50 (ACHN renal) was 203 nM, the TGI (ACHN renal) was 577 nM and the GI50 (BT-549 breast) was 304 nM. For the same compound, the TGI (BT-549 breast) was 1310 nM, the GI50 (CCRF-CEM leukemia) was 403 nM and the TGI (CCRF-CEM leukemia) was 4660 nM. It also gave a GI50 (COLO 205 colon) of 10500 nM, a TGI (COLO 205 colon) of 27600 nM and a GI50 (DU-145 prostate) of 279 nM. For the same compound, the TGI (DU-145 prostate) was 781 nM, the GI50 (EKVX NSCLC) was 249 nM and the TGI (EKVX NSCLC) was 2440 nM. The GI50 (HCC-2998 colon) was 637 nM, the TGI (HCC-2998 colon) was 2550 nM and the GI50 (HCT-116 colon) was 307 nM. For the same compound, the TGI (HCT-116 colon) was 1090 nM, the GI50 (HCT-15 colon) was 208 nM and the TGI (HCT-15 colon) was 512 nM. The GI50 (HL-60(TB) leukemia) was 1700 nM, the TGI (HL-60(TB) leukemia) was 5250 nM and the GI50 (HOP-62 NSCLC) was 202 nM. For the same compound, the TGI (HOP-62 NSCLC) was 643 nM, the GI50 (HOP-92 NSCLC) was 151 nM and the TGI (HOP-92 NSCLC) was 389 nM. It also gave a GI50 (HS 578T breast) of 264 nM, a TGI (HS 578T breast) of 1370 nM and a GI50 (HT29 colon) of 3700 nM. It also gave a TGI (HT29 colon) of 12900 nM, a GI50 (IGROV1 ovarian) of 222 nM and a TGI (IGROV1 ovarian) of 746 nM. It also gave a GI50 (K-562 leukemia) of 375 nM, a TGI (K-562 leukemia) of 2010 nM and a GI50 (KM12 colon) of 447 nM. The TGI (KM12 colon) was 3020 nM, the GI50 (LOX IMVI melanoma) was 321 nM and the TGI (LOX IMVI melanoma) was 1300 nM. The GI50 (M14 melanoma) was 397 nM, the TGI (M14 melanoma) was 1530 nM and the GI50 (MALME-3M melanoma) was 226 nM. It also gave a TGI (MALME-3M melanoma) of 441 nM, a GI50 (MCF7 breast) of 230 nM and a TGI (MCF7 breast) of 1050 nM. For the same compound, the GI50 (MDA-MB-231 breast) was 165 nM, the TGI (MDA-MB-231 breast) was 519 nM and the GI50 (MDA-MB-435) was 297 nM. The TGI (MDA-MB-435) was 1190 nM, the GI50 (MOLT-4 leukemia) was 435 nM and the TGI (MOLT-4 leukemia) was 3140 nM. The GI50 (NCI-H226 lung) was 143 nM, the TGI (NCI-H226 lung) was 355 nM and the GI50 (NCI-H23 lung) was 355 nM. The TGI (NCI-H23 lung) was 1830 nM, the GI50 (NCI-H460 lung) was 220 nM and the TGI (NCI-H460 lung) was 489 nM. It also gave a GI50 (NCI-H522 lung) of 318 nM, a TGI (NCI-H522 lung) of 1400 nM and a GI50 (NCI/ADR-RES ovarian) of 354 nM. For the same compound, the TGI (NCI/ADR-RES ovarian) was 1770 nM, the GI50 (OVCAR-3 ovarian) was 239 nM and the TGI (OVCAR-3 ovarian) was 557 nM. It also gave a GI50 (OVCAR-4 ovarian) of 165 nM, a TGI (OVCAR-4 ovarian) of 443 nM and a GI50 (OVCAR-5 ovarian) of 3440 nM. For the same compound, the TGI (OVCAR-5 ovarian) was 14700 nM, the GI50 (OVCAR-8 ovarian) was 389 nM and the TGI (OVCAR-8 ovarian) was 2290 nM. It also gave a GI50 (PC-3 prostate) of 182 nM, a TGI (PC-3 prostate) of 460 nM and a GI50 (RPMI-8226 leukemia) of 387 nM. For the same compound, the TGI (RPMI-8226 leukemia) was 2640 nM, the GI50 (RXF 393 renal) was 210 nM and the TGI (RXF 393 renal) was 577 nM. For the same compound, the GI50 (SF-268 CNS) was 456 nM, the TGI (SF-268 CNS) was 3990 nM and the GI50 (SF-295 CNS) was 637 nM. For the same compound, the TGI (SF-295 CNS) was 2290 nM, the GI50 (SF-539 CNS) was 229 nM and the TGI (SF-539 CNS) was 566 nM. It also gave a GI50 (SK-MEL-2 melanoma) of 1750 nM, a TGI (SK-MEL-2 melanoma) of 5180 nM and a GI50 (SK-MEL-28 melanoma) of 339 nM. For the same compound, the TGI (SK-MEL-28 melanoma) was 1230 nM, the GI50 (SK-MEL-5 melanoma) was 305 nM and the TGI (SK-MEL-5 melanoma) was 1210 nM. It also gave a GI50 (SK-OV-3 ovarian) of 348 nM, a TGI (SK-OV-3 ovarian) of 1780 nM and a GI50 (SN12C renal) of 198 nM. For the same compound, the TGI (SN12C renal) was 463 nM, the GI50 (SNB-19 CNS) was 312 nM and the TGI (SNB-19 CNS) was 1100 nM. For the same compound, the GI50 (SNB-75 CNS) was 160 nM, the TGI (SNB-75 CNS) was 418 nM and the GI50 (SR leukemia) was 496 nM. For the same compound, the TGI (SR leukemia) was 3940 nM, the GI50 (SW-620 colon) was 332 nM and the TGI (SW-620 colon) was 1010 nM. The GI50 (T-47D breast) was 256 nM, the TGI (T-47D breast) was 981 nM and the GI50 (TK-10 renal) was 379 nM. For the same compound, the TGI (TK-10 renal) was 1100 nM, the GI50 (U251 CNS) was 268 nM and the TGI (U251 CNS) was 767 nM. The GI50 (UACC-257 melanoma) was 1330 nM, the TGI (UACC-257 melanoma) was 3360 nM and the GI50 (UACC-62 melanoma) was 285 nM. It also gave a TGI (UACC-62 melanoma) of 1150 nM, a GI50 (UO-31 renal) of 195 nM and a TGI (UO-31 renal) of 605 nM.
